Values joined by “and” are separate entries in the source; they are usually repeats but may differ in a detail not shown here. Equal values may be shown once.
Assays:
[1] = system: pediatric subjects with moderate atopic dermatitis; test: Phase IIIb trial, efficacy by Investigator global assessment (IGA) score on day 43; format: in vivo, human; details: for Efficacy (IGA): number of patients that experienced efficacy / Efficacy (IGA): percent of patients that experienced efficacy: IGA score of 0 or 1 on day 43
From the text: The genetic locus was identified in a Phase IIIb trial that was designed as a head to head comparison of pimecrolimus cream 1% and tacrolimus ointment 0.03%. The six-week investigator-blinded trial of pediatric subjects with moderate atopic dermatitis explored the incidence of local application site reactions induced by the two topical macrolactams, as well as their efficacy, safety and cosmetic acceptability. Blood samples for pharmacogenetic analysis were collected from consenting participants in the clinical trial, to define a genetic basis for response to either treatment. Statistical analysis. Investigator global assessment (IGA) scores were used as the primary marker of efficacy in the pharmacogenetic studies. IGA scores at the end of the Investigator Blinded phase of the trial (Day 43) were used as the main time-point for comparison. Last observation carried forward imputations were only required for one subject at day 43. In this case, there was no IGA score available after Day 29, and the score on this day was used in place of a day 43 IGA score. IGA scores were re-coded, as was done to assess efficacy in the trial itself. An IGA score of 0 or 1 was considered successful treatment and IGA scores of 2-5 were counted as treatment failure. The severity of pruritus was also used as a marker of efficacy. Pruritus scores were dichotomized into absence (score=0) or presence (score=1, 2 or 3) of pruritus. The fisher's exact model was employed to examine the genotype effect on each efficacy variable. All statistical analyses were done using SAS version 8.2 software.

[2] = system: pediatric subjects with moderate atopic dermatitis; test: Phase IIIb trial, severity of pruritus score on day 43; format: in vivo, human
From the text: The genetic locus was identified in a Phase IIIb trial that was designed as a head to head comparison of pimecrolimus cream 1% and tacrolimus ointment 0.03%. The six-week investigator-blinded trial of pediatric subjects with moderate atopic dermatitis explored the incidence of local application site reactions induced by the two topical macrolactams, as well as their efficacy, safety and cosmetic acceptability. Blood samples for pharmacogenetic analysis were collected from consenting participants in the clinical trial, to define a genetic basis for response to either treatment.
Statistical analysis. Investigator global assessment (IGA) scores were used as the primary marker of efficacy in the pharmacogenetic studies. IGA scores at the end of the Investigator Blinded phase of the trial (Day 43) were used as the main time-point for comparison. Last observation carried forward imputations were only required for one subject at day 43. In this case, there was no IGA score available after Day 29, and the score on this day was used in place of a day 43 IGA score. IGA scores were re-coded, as was done to assess efficacy in the trial itself. An IGA score of 0 or 1 was considered successful treatment and IGA scores of 2-5 were counted as treatment failure. The severity of pruritus was also used as a marker of efficacy. Pruritus scores were dichotomized into absence (score=0) or presence (score=1, 2 or 3) of pruritus. The fisher's exact model was employed to examine the genotype effect on each efficacy variable. All statistical analyses were done using SAS version 8.2 software.
Association between polymorphic markers and relief from pruritus. A secondary efficacy variable used in the trial was pruritus. An analysis was done to see if ASN60THR LTA and (−1031) TNF associated with this efficacy variable (assessed on day 43).

[3] = (−1031) TNF genotype CC, day 43
[4] = (−1031) TNF genotype CT, day 43
[5] = (−1031) TNF genotype TT, day 43
[6] = ASN60THR LTA genotype AA, day 43
[7] = ASN60THR LTA genotype AC, day 43
[8] = ASN60THR LTA genotype CC, day 43
[9] = VAL63ILE CCR2 (TWT# 47987) genotype AG, day 43
[10] = VAL63ILE CCR2 (TWT# 47987) genotype GG, day 43
[11] = all (−1031) TNF genotypes, day 43
[12] = all ASN60THR LTA genotypes, day 43
[13] = all VAL63ILE CCR2 genotypes, day 43

SMILES: C=CC[C@@H]1/C=C(\C)C[C@H](C)C[C@H](OC)[C@H]2O[C@@](O)(C(=O)C(=O)N3CCCC[C@H]3C(=O)O[C@H](/C(C)=C/[C@@H]3CC[C@@H](O)[C@H](OC)C3)[C@H](C)[C@@H](O)CC1=O)[C@H](C)C[C@@H]2OC [tacrolimus]
- No success (IGA ≧ 2), number of individuals [1, 3]: 1
- No success (IGA ≧ 2), percent [1, 3]: 50%
- Success (IGA = 0 or 1), number of individuals [1, 3]: 1
- Success (IGA = 0 or 1), percent [1, 3]: 50%
- No success (IGA ≧ 2), number of individuals [1, 4]: 2
- No success (IGA ≧ 2), percent [1, 4]: 40%
- Success (IGA = 0 or 1), number of individuals [1, 4]: 3
- Success (IGA = 0 or 1), percent [1, 4]: 60%
- No success (IGA ≧ 2), number of individuals [1, 5]: 8
- No success (IGA ≧ 2), percent [1, 5]: 47%
- Success (IGA = 0 or 1), number of individuals [1, 5]: 9
- Success (IGA = 0 or 1), percent [1, 5]: 53%
- No success (IGA ≧ 2), number of individuals [1, 6]: 3
- No success (IGA ≧ 2), percent [1, 6]: 43%
- Success (IGA = 0 or 1), number of individuals [1, 6]: 4
- Success (IGA = 0 or 1), percent [1, 6]: 57%
- No success (IGA ≧ 2), number of individuals [1, 7]: 4
- No success (IGA ≧ 2), percent [1, 7]: 40%
- Success (IGA = 0 or 1), number of individuals [1, 7]: 6
- Success (IGA = 0 or 1), percent [1, 7]: 60%
- No success (IGA ≧ 2), number of individuals [1, 8]: 4
- No success (IGA ≧ 2), percent [1, 8]: 57%
- Success (IGA = 0 or 1), number of individuals [1, 8]: 3
- Success (IGA = 0 or 1), percent [1, 8]: 42%
- No success (IGA ≧ 2), number of individuals ([1]; LTB (TWT#128095) genotype AC): 3
- No success (IGA ≧ 2), percent ([1]; LTB (TWT#128095) genotype AC): 60%
- Success (IGA = 0 or 1), number of individuals ([1]; LTB (TWT#128095) genotype AC): 2
- Success (IGA = 0 or 1), percent ([1]; LTB (TWT#128095) genotype AC): 40%
- No success (IGA ≧ 2), number of individuals ([1]; LTB (TWT#128095) genotype CC): 8
- No success (IGA ≧ 2), percent ([1]; LTB (TWT#128095) genotype CC): 44%
- Success (IGA = 0 or 1), number of individuals ([1]; LTB (TWT#128095) genotype CC): 10
- Success (IGA = 0 or 1), percent ([1]; LTB (TWT#128095) genotype CC): 56%
- Efficacy (IGA): number of patients that experienced efficacy ([1]; Pharmacogenomics samples): 13
- Efficacy (IGA): percent of patients that experienced efficacy ([1]; Pharmacogenomics samples): 52%
- Efficacy (IGA): number of patients that experienced efficacy ([1]; Trial subjects): 27
- Efficacy (IGA): percent of patients that experienced efficacy ([1]; Trial subjects): 40%
- No success (IGA ≧ 2), number of individuals [1, 9]: 2
- No success (IGA ≧ 2), percent [1, 9]: 20%
- Success (IGA = 0 or 1), number of individuals [1, 9]: 8/10 and 8
- Success (IGA = 0 or 1), percent [1, 9]: 80%
- No success (IGA ≧ 2), number of individuals [1, 10]: 9
- No success (IGA ≧ 2), percent [1, 10]: 69%
- Success (IGA = 0 or 1), number of individuals [1, 10]: 4/13 and 4
- Success (IGA = 0 or 1), percent [1, 10]: 31%
- No success (IGA ≧ 2), number of individuals, Total [1, 11]: 11
- Success (IGA = 0 or 1), number of individuals, Total [1, 11]: 13
- No success (IGA ≧ 2), number of individuals, Total [1, 12]: 11
- Success (IGA = 0 or 1), number of individuals, Total [1, 12]: 13
- No success (IGA ≧ 2), number of individuals, Total ([1]; all LTB (TWT#128095) genotypes): 11
- Success (IGA = 0 or 1), number of individuals, Total ([1]; all LTB (TWT#128095) genotypes): 12
- No success (IGA ≧ 2), number of individuals, Total [1, 13]: 11
- Success (IGA = 0 or 1), number of individuals, Total [1, 13]: 12
- Pruritus (day 43) score 0, number of subjects ([2]; Pharmacogenomics samples): 5
- Pruritus (day 43) score 0, percent of subjects ([2]; Pharmacogenomics samples): 20%
- Pruritus (day 43) score 1, number of subjects ([2]; Pharmacogenomics samples): 10
- Pruritus (day 43) score 1, percent of subjects ([2]; Pharmacogenomics samples): 40%
- Pruritus (day 43) score 2, number of subjects ([2]; Pharmacogenomics samples): 7
- Pruritus (day 43) score 2, percent of subjects ([2]; Pharmacogenomics samples): 28%
- Pruritus (day 43) score 3, number of subjects ([2]; Pharmacogenomics samples): 3
- Pruritus (day 43) score 3, percent of subjects ([2]; Pharmacogenomics samples): 12%
- Pruritus (day 43) score 0, number of subjects ([2]; Trial subjects): 11
- Pruritus (day 43) score 0, percent of subjects ([2]; Trial subjects): 16%
- Pruritus (day 43) score 1, number of subjects ([2]; Trial subjects): 35
- Pruritus (day 43) score 1, percent of subjects ([2]; Trial subjects): 50%
- Pruritus (day 43) score 2, number of subjects ([2]; Trial subjects): 19
- Pruritus (day 43) score 2, percent of subjects ([2]; Trial subjects): 27%
- Pruritus (day 43) score 3, number of subjects ([2]; Trial subjects): 3
- Pruritus (day 43) score 3, percent of subjects ([2]; Trial subjects): 4%

From US20070155772A1, “Use of genetic polymorphisms that associate with efficacy of treatment of inflammatory disease” (priority 2003, published 2007)
